Experimental findings from patent US9447086B2, “6-amino acid heteroaryldihydropyrimidines for the treatment and prophylaxis of hepatitis B virus infection” (priority 2012, dated 2016) are described below.

One series relates to HBV. In words: Anti-HBV activity in vitro in HepG2.2.15 cells (extracellular HBV DNA by qPCR). In kind it is cell-based, Hepatitis B virus. The conditions noted are these: Hepatitis B virus. An excerpt:
HepG2.2.15 and HepDE19 are stably-transfected cell lines containing the HBV genome. Both cell lines are derived from the hepatoblastoma cell line Hep G2 (American Type Culture Collection, ATCC® HB-8065™) by the published procedures described in references: MA Selles et al. Proc. Natl. Acad. Sci. USA 1987, 84, 1005-1009 and H Guo et al. Journal of Virology 2007, 81, 12472-12484, respectively. Both cell lines were maintained in Dulbecco's modified Eagle's medium (DMEM)-F12 medium supplemented with 10% fetal bovine serum, 100 U/mL penicillin, 100 μg/mL streptomycin, and 0.5 mg/mL of G418.
While HepG2.2.15 cells constitutively support HBV replication and production of virus particles, HepDE19 cells are inducible by tetracycline. Addition of 1 μg/mL tetracycline in culture medium suppresses HBV replication in HepDE19 cells, whereas switching to tetracycline-free medium resumes this process.
HepG2.2.15 cells were seeded into 96-well plates (3×10^4 cells in 100 μl media per well) and incubated overnight at 37° C. The test compounds were serially half-log diluted in DMSO, then diluted 100 times in culture media. 100 μL diluted compounds were added into the plates to reach 0.5% final concentration of DMSO in every well. Five days after compound treatment, culture supernatant was collected for further analysis.
For quantitative PCR detection of extracellular HBV DNA, 100 μL culture supernatant was collected and processed in MagNA Pure 96 Nucleic Acid Purification System (Roche Applied Science) for viral DNA extraction. The extracted samples were subjected to HBV DNA quantification by qPCR.
The compounds of the present invention were tested for their capacity to inhibit a HBV activity and activation as described herein.
Background: In qPCR the cycle at which signal appears reflects the starting amount.

Series [1] is described as follows: Metabolic stability study in human microsome. In kind it is in vitro ADME. As for the experimental part:
Human Microsomes were preincubated with test compound for 10 min at 37° C. in 100 mM phosphate buffer, pH 7.4. The reactions were initiated by adding NADPH or NADPH regenerating system to give a final incubation volume of 400 μL. For NADPH system, the final incubations contained 1 μM test compound, 0.5 mg/mL liver microsomal protein, 1 mM NADPH in 100 mM phosphate buffer, pH 7.4. For the NADPH regenerating system, the final incubations contained 1 μM test compound, 0.5 mg/mL liver microsomal protein, 3 mM glucose 6-phosphate, 1 mM NADP, 3 mM MgCl2 and 0.05 mg/mL glucose 6-phosphate dehydrogenase in 100 mM phosphate buffer, pH 7.4. After incubation times of 0, 3, 6, 9, 15 and 30 minutes at 37° C., 50 μL samples was removed and transferred to 150 μL methanol solution which was maintained at 4° C. containing 2 μM tolbutamide (internal standard) to terminating the reaction. Following precipitation and centrifugation, the amount of compound remaining in the samples were determined by LC-MS/MS. Controls of no NADPH or NADPH regenerating system at zero and 30 min were also prepared and analyzed.

Series [2] in a line: Lyophilisation solubility assay (Lysa). In kind it is physicochemical. Conditions: pH 6.5, aqueous buffer, thermodynamic from solid. The method, then:
The aqueous solubility is an important physico-chemical property that plays a significant role in various physical and biological processes. It is desirable to have good solubility which enables good permeability and gastric and intestinal absorption, linear dose proportionality, less PK variability, and easy formulation for PD/PK studies. […] Lyophilisation solubility assay (Lysa) is a well adopted high throughput assay to measure compound solubility in industry.
Samples are prepared in duplicate from 10 mM DMSO stock solutions. After evaporation of DMSO with a centrifugal vacuum evaporator, the residue is solved in 0.05 M phosphate buffer (pH 6.5), stirred for one hour and shaken for two hours. After one night, the solutions is filtered using a microtiter filter plate and the filtrate and its 1/10 dilution are then analyzed by direct UV measurement or by HPLC-UV. […] The results are in μg/mL.

Setting [3] is: HepG2.2.15 cells, in-house data, read-out: EC50.

Converted amounts (≈) assume the structure as drawn. Like-named read-outs stand apart in the source and are kept apart here.

For `CCCOC(=O)C1=C(CN2CCOC[C@H]2C(=O)O)NC(c2nccs2)=N[C@H]1c1ccc(F)cc1Cl` [Example 99, (S)-4-[6-(2-Chloro-4-fluoro-phenyl)-5-propoxycarbonyl-2-thiazol-2-yl-3,6-dihydro-pyrimidin-4-ylmethyl]-morpholine-3-carboxylic acid], the concentration for a half-maximal effect (EC50) with HBV (setting [3]) amounted to 12 nM. In series [1], the “Human Hepatic Clearance” value is recorded as 2.13 mL/min/kg. Also, the thermodynamic solubility in series [2] (phosphate buffer) was above 677 µg/mL.
The matching figures for `COC(=O)C1=C(CN2CCOC[C@@]2(C)C(=O)O)NC(c2nccs2)=N[C@H]1c1ccc(F)c(F)c1Cl` [Example 78, (S)-4-[(R)-6-(2-Chloro-3,4-difluoro-phenyl)-5-methoxycarbonyl-2-thiazol-2-yl-3,6-dihydro-pyrimidin-4-ylmethyl]-3-methyl-morpholine-3-carboxylic acid]: 26 nM, 3.22 mL/min/kg and above 653 µg/mL.
As for `COC(=O)C1=C(CN2CCSCC2C(=O)O)NC(c2nccs2)=N[C@H]1c1ccc(F)cc1Cl` (stereo in doubt) [Example 91, (3S)-4-[[(4R)-4-(2-Chloro-4-fluoro-phenyl)-5-methoxycarbonyl-2-thiazol-2-yl-1,4-dihydropyrimidin-6-yl]methyl]thiomorpholine-3-carboxylic acid], the EC50 in the series on HBV (setting [3]) was found to be 38 nM. The “Human Hepatic Clearance” value in series [1] came to 1.62 mL/min/kg. The molecule further returned a solubility (thermodynamic) in series [2] (phosphate buffer) of 584 µg/mL (≈ 1140 µM).
For `COC(=O)C1=C(CN2C[C@H](C(=O)O)CC(F)(F)C2)NC(c2nc(C)cs2)=N[C@H]1c1ccc(F)cc1Cl` [Example 80, (R)-6-((R)-5-Carboxy-3,3-difluoro-piperidin-1-ylmethyl)-4-(2-chloro-4-fluoro-phenyl)-2-(4-methyl-thiazol-2-yl)-1,4-dihydro-pyrimidine-5-carboxylic acid methyl ester], in the series with HBV (setting [3]), the EC50 is 27 nM. Also, in series [1], the “Human Hepatic Clearance” value was determined as 4.27 mL/min/kg. Moreover, the thermodynamic solubility in series [2] (phosphate buffer) was determined as 518 µg/mL (≈ 954 µM).
As for `COC(=O)C1=C(CN2C[C@H](C(=O)O)CC(F)(F)C2)NC(c2nccs2)=N[C@H]1c1ccc(F)cc1Cl` [Example 14, (R)-6-((R)-5-Carboxy-3,3-difluoro-piperidin-1-ylmethyl)-4-(2-chloro-4-fluoro-phenyl)-2-thiazol-2-yl-1,4-dihydro-pyrimidine-5-carboxylic acid methyl ester], the EC50 in the series on HBV (setting [3]) came out at 41 nM. In series [1], the “Human Hepatic Clearance” value worked out at 1.41 mL/min/kg. Besides, the solubility (thermodynamic) in series [2] (phosphate buffer) was above 644 µg/mL.
Consider `CCOC(=O)C1=C(CN2CCOC[C@H]2C(=O)O)NC(c2nccs2)=N[C@H]1c1cc(F)cc(Cl)c1` [Example 125, (3S)-4-[[(4S)-4-(3-Chloro-5-fluorophenyl)-5 ethoxycarbonyl-2-(1,3-thiazol-2-yl)-1,4-dihydropyrimidin-6-yl]methyl]morpholine-3 carboxylic acid], for which the concentration giving a half-maximal response (EC50) in the series on HBV (setting [3]) is 30 nM. In series [1], the “Human Hepatic Clearance” value amounted to 1.32 mL/min/kg. In series [2] (phosphate buffer), this molecule had a solubility (thermodynamic) above 636 µg/mL.
As to `COC(=O)C1=C(CN2CC(F)(F)C[C@H]2C(=O)O)NC(c2ncc(F)cc2F)=N[C@H]1c1ccc(F)cc1Cl` [Example 4, (R)-6-((S)-2-Carboxy-4,4-difluoro-pyrrolidin-1-ylmethyl)-4-(2-chloro-4-fluoro-phenyl)-2-(3,5-difluoro-pyridin-2-yl)-1,4-dihydro-pyrimidine-5-carboxylic acid methyl ester], in the series with HBV (setting [3]), the EC50 came out at 1.5 nM. Further, the “Human Hepatic Clearance” value in series [1] is reported as 5.11 mL/min/kg. Further, in series [2] (phosphate buffer), the thermodynamic solubility is above 700 µg/mL.
`COC(=O)C1=C(CN2CC(F)(F)C[C@H]2C(=O)O)NC(c2cc(Cl)cs2)=N[C@H]1c1ccc(F)cc1Cl` [Example 23, (R)-6-((S)-2-Carboxy-4,4-difluoro-pyrrolidin-1-ylmethyl)-4-(2-chloro-4-fluoro-phenyl)-2-(4-chloro-thiophen-2-yl)-1,4-dihydro-pyrimidine-5-carboxylic acid methyl ester]: in the series on HBV (setting [3]), the concentration giving a half-maximal response (EC50) is 25 nM. Moreover, in series [1], the “Human Hepatic Clearance” value stood at 8.8 mL/min/kg. This molecule also returned a solubility (thermodynamic) in series [2] (phosphate buffer) of 172 µg/mL (≈ 314 µM).
With `COC(=O)C1=C(CN2CC(F)(F)C[C@H]2C(=O)O)NC(c2nccs2)=N[C@H]1c1ccc(Br)cc1Cl` [Example 29, (R)-4-(4-Bromo-2-chloro-phenyl)-6-((S)-2-carboxy-4,4-difluoro-pyrrolidin-1-ylmethyl)-2-thiazol-2-yl-1,4-dihydro-pyrimidine-5-carboxylic acid methyl ester], the EC50 in the series with HBV (setting [3]) amounted to 28 nM. Further, in series [1], the “Human Hepatic Clearance” value came to 7.65 mL/min/kg. The solubility (thermodynamic) in series [2] (phosphate buffer) is 420 µg/mL (≈ 729 µM).
`CCOC(=O)C1=C(CN2CCO[C@H](C)[C@H]2C(=O)O)NC(c2nccs2)=N[C@H]1c1ccc(F)cc1Br` [Example 116, (2R,3S)-4-[(R)-6-(2-Bromo-4-fluoro-phenyl)-5-ethoxycarbonyl-2-thiazol-2-yl-3,6-dihydro-pyrimidin-4-ylmethyl]-2-methyl-morpholine-3-carboxylic acid] registered an EC50 with HBV (HepG2.2.15) of 1.8 nM. For the same molecule, in series [1], the “Human Hepatic Clearance” value was found to be 0 mL/min/kg. Moreover, in series [2], the thermodynamic solubility is above 735 µg/mL.
For the molecule `CC(C)OC(=O)C1=C(CN2CCOC[C@H]2C(=O)O)NC(c2nccs2)=N[C@H]1c1ccc(F)c(F)c1` [Example 100, (S)-4-[(S)-6-(3,4-Difluoro-phenyl)-5-isopropoxycarbonyl-2-thiazol-2-yl-3,6-dihydro-pyrimidin-4-ylmethyl]-morpholine-3-carboxylic acid], in the series on HBV (setting [3]), the EC50 came to 35 nM. In addition, the “Human Hepatic Clearance” value in series [1] was 0.1 mL/min/kg. Besides, the solubility (thermodynamic) in series [2] (phosphate buffer) is above 656 µg/mL.
For the molecule `CCOC(=O)C1=C(CN2CCOC[C@H]2C(=O)O)NC(c2nccs2)=N[C@H]1c1ccc(Cl)c(Br)c1` [Example 124, (3S)-4-[[(4S)-4-(3-Bromo-4-chlorophenyl)-5-ethoxycarbonyl-2-(1,3-thiazol-2-yl)-1,4-dihydropyrimidin-6-yl]methyl]morpholine-3-carboxylic acid], the EC50 with HBV (setting [3]) is 29 nM. For the same molecule, in series [1], the “Human Hepatic Clearance” value worked out at 2.17 mL/min/kg. Further, the solubility (thermodynamic) in series [2] (phosphate buffer) was above 655 µg/mL.
With `CCOC(=O)C1=C(CN2CC(F)(F)C[C@H]2C(=O)O)NC(c2nccn2C)=N[C@H]1c1ccc(F)c(F)c1` [Example 56, (S)-6-((S)-2-Carboxy-4,4-difluoro-pyrrolidin-1-ylmethyl)-4-(3,4-difluoro-phenyl)-2-(1-methyl-1H-imidazol-2-yl)-1,4-dihydro-pyrimidine-5-carboxylic acid ethyl ester], the EC50 in the series on HBV (setting [3]) was found to be 15 nM. The “Human Hepatic Clearance” value in series [1] is 2.44 mL/min/kg. The thermodynamic solubility in series [2] (phosphate buffer) was above 645 µg/mL.
As for `CCOC(=O)C1=C(CN2CC(F)(F)C[C@H]2C(=O)O)NC(c2nccs2)=NC1c1ccc(F)c(F)c1Cl` (stereo in doubt) [Example 55, (R)-6-((S)-2-Carboxy-4,4-difluoro-pyrrolidin-1-ylmethyl)-4-(2-chloro-3,4-difluoro-phenyl)-2-thiazol-2-yl-1,4-dihydro-pyrimidine-5-carboxylic acid ethyl ester], the concentration for a half-maximal effect (EC50) in the series with HBV (setting [3]) is 1 nM. Moreover, in series [2] (phosphate buffer), the thermodynamic solubility is above 670 µg/mL.
With `COC(=O)C1=C(CN2CC(F)(F)C[C@H]2C(=O)O)NC(c2nc(SC)cs2)=N[C@H]1c1ccc(F)cc1Cl` [Example 62, (2S)-1-[[(4R)-4-(2-Chloro-4-fluorophenyl)-5-methoxycarbonyl-2-(4-methylsulfanyl-1,3-thiazol-2-yl)-1,4-dihydropyrimidin-6-yl]methyl]-4,4-difluoropyrrolidine-2-carboxylic acid], in the series with HBV (setting [3]), the concentration for a half-maximal effect (EC50) worked out at 14 nM. Besides, the “Human Hepatic Clearance” value in series [1] stood at 9.06 mL/min/kg.

In general, EC50 refers to the midpoint of the concentration-response curve. Broadly, the thermodynamic solubility is the concentration in solution at equilibrium with solid.
